One test deals with EGFR Del19/T790M/C797S (Homo sapiens, UniProt P00533, C797S/T790M, form not given). Description: Enzyme IC50, EGFR Del19/T790M/C797S. It is filed as biochemical.
For test [1], the system named is BaF3-EGFR (Del19/T790M/C797S) cells. The experiment in a line: Inhibitory activity on Ba/F3 cell proliferation (CellTiter-Glo, 72 hours). It is filed as cell-based. Particulars: Ba/F3 cells expressing EGFR Del19/T790M/C797S. Summed up: (§1)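 Ba/F3 cells expressing wild-type EGFR or EGFR Del19/T790M/C797S, 3×10^3 per well, exposed 72 h at 37 °C to compound at 12 threefold dilutions, 0.00005-10 μM final. Viability by CellTiter-Glo 2.0; GI50 derived from growth relative to DMSO-treated cells.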

The subject of the next test is BaF3-EGFR (WT) cells. The test is described as above. It is filed as cell-based. Particulars: Ba/F3 cells expressing EGFR WT. Summed up: as §1

Each structure is given as a SMILES string.

Chain of EGFR Del19/T790M/C797S (P00533 25-1210 T790M/C797S, form open): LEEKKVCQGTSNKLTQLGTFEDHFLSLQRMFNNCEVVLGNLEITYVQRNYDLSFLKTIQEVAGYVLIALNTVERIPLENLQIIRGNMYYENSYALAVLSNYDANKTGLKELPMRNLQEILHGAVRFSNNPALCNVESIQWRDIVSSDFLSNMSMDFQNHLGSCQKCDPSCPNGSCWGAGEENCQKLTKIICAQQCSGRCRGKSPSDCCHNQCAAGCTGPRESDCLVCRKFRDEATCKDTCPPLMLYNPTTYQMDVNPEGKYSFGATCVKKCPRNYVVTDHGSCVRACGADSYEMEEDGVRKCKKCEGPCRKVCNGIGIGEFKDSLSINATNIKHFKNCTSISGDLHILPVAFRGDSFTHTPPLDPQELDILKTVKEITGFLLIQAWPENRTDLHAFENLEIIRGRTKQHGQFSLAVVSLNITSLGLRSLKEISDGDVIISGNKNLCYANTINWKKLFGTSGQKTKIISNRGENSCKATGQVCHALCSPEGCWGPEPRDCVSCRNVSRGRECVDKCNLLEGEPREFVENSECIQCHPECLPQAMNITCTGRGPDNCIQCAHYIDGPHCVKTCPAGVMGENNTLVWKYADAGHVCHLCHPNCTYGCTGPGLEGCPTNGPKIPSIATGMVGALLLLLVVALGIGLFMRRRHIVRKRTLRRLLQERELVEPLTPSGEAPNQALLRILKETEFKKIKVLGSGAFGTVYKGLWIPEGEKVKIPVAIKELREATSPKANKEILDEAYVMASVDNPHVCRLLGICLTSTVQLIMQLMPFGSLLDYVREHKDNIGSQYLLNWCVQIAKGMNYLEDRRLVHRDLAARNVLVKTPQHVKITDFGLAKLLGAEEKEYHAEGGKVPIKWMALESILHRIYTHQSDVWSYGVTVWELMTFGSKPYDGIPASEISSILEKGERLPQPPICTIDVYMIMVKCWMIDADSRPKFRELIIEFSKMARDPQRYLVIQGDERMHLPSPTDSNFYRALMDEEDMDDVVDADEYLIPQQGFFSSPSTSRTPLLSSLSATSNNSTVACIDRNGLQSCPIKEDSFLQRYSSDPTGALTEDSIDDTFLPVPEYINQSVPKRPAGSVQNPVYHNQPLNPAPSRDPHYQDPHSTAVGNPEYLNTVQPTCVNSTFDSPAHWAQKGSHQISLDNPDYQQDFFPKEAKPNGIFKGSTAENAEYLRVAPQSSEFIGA

The term IC50 denotes the concentration that inhibits the measured activity by half. The low end stands for inhibition by little substance, the high end for a need for much substance. A word on the GI50: it is the concentration that inhibits growth by half. `CCc1cc(Nc2nc(Nc3ccc4nccnc4c3P(C)(C)=O)c3cc[nH]c3n2)c(OC)cc1N1CCC(N2CCN(C)CC2)CC1` [Example 55, (6-((2-((5-ethyl-2-methoxy-4-(4-(4-methylpiperazin-1-yl)piperidin-1-yl)phenyl)amino)-7H-pyrrolo[2,3-d]pyrimidin-4-yl)amino)quinoxalin-5-yl)dimethyl-phosphine oxide] came in with an IC50 on EGFR Del19/T790M/C797S of at most 0.05 µM. For the same molecule, the figures for the concentration for 50% growth inhibition (GI50) (in test [1]; in the test with BaF3-EGFR (WT) cells) were at most 0.05 µM and over 0.1 µM, respectively.
For `COc1cc(N2CCC(N3CCN(C)CC3)CC2)c(Cl)cc1Nc1nc(Nc2ccc3nccnc3c2P(C)(C)=O)c2cc[nH]c2n1` [Example 56, (6-((2-((5-chloro-2-methoxy-4-(4-(4-methylpiperazin-1-yl)piperidin-1-yl)phenyl)amino)-7H-pyrrolo[2,3-d]pyrimidin-4-yl)amino)quinoxalin-5-yl)dimethyl-phosphine oxide], at EGFR Del19/T790M/C797S, the concentration for half-maximal inhibition (IC50) was at most 0.05 µM. For the same molecule, the GI50 in test [1] was at most 0.05 µM; with BaF3-EGFR (WT) cells it was over 0.1 µM.
`COc1cc(N2CCC(N3CCN(C4CC4)CC3)CC2)c(C)cc1Nc1nc(Nc2ccc3nccnc3c2P(C)(C)=O)c2cc[nH]c2n1` [Example 60, (6-((2-((4-(4-(4-cyclopropyl-piperazin-1-yl)piperidin-1-yl)-2-methoxy-5-methylphenyl)amino)-7H-pyrrolo[2,3-d]pyrimidin-4-yl)amino)quinoxalin-5-yl)dimethyl-phosphine oxide] yielded an IC50 at EGFR Del19/T790M/C797S of at most 0.05 µM. Moreover, the values for the 50% growth inhibitory concentration (GI50) (in test [1]; with BaF3-EGFR (WT) cells) were at most 0.05 µM and over 0.1 µM, respectively.
Molecule `CCN1CCN(C2CCN(c3cc(OC)c(Nc4nc(Nc5ccc6nccnc6c5P(C)(C)=O)c5cc[nH]c5n4)cc3C)CC2)CC1` [Example 61, (6-((2-((4-(4-(4-ethylpiperazin-1-yl)piperidin-1-yl)-2-methoxy-5-methylphenyl)amino)-7H-pyrrolo[2,3-d]pyrimidin-4-yl)amino)quinoxalin-5-yl)dimethyl-phosphine oxide] displayed an IC50 at EGFR Del19/T790M/C797S of at most 0.05 µM. The GI50 was 0.05 to 0.1 µM in test [1] and over 0.1 µM with BaF3-EGFR (WT) cells.
In the same order, the values of `COc1cc(N2CCC(N3CCN(C(C)C)CC3)CC2)c(C)cc1Nc1nc(Nc2ccc3nccnc3c2P(C)(C)=O)c2cc[nH]c2n1` [Example 62, (6-((2-((4-(4-(4-isopropyl-piperazin-1-yl)piperidin-1-yl)-2-methoxy-5-methylphenyl)amino)-7H-pyrrolo[2,3-d]pyrimidin-4-yl)amino)quinoxalin-5-yl)dimethyl-phosphine oxide] are at most 0.05 µM, 0.05 to 0.1 µM and over 0.1 µM.
The matching figures for `COc1ccc(C)cc1Nc1nc(Nc2ccc3nccnc3c2P(C)(C)=O)c2cc[nH]c2n1` [Example 68, (6-((2-((2-methoxy-5-methylphenyl)amino)-7H-pyrrolo[2,3-d]pyrimidin-4-yl)amino)quinoxalin-5-yl)dimethyl-phosphine oxide]: at most 0.05 µM, over 0.1 µM and over 0.1 µM.
Consider `CCOc1ccc(C(F)(F)F)cc1Nc1nc(Nc2ccc3nccnc3c2P(C)(C)=O)c2cc[nH]c2n1` [Example 69, (6-((2-((2-ethoxy-5-(trifluoromethyl)phenyl)amino)-7H-pyrrolo[2,3-d]pyrimidin-4-yl)amino)quinoxalin-5-yl)dimethyl-phosphine oxide], for which the IC50 at EGFR Del19/T790M/C797S was over 0.1 µM. The concentration for 50% growth inhibition (GI50) (in test [1]; in the test with BaF3-EGFR (WT) cells) was over 0.1 µM throughout.
`COc1cc(N2CCN(C)CC2)c(-c2ccncc2)cc1Nc1nc(Nc2ccc3nccnc3c2P(C)(C)=O)c2cc[nH]c2n1` [Example 70, (6-((2-((2-methoxy-4-(4-methylpiperazin-1-yl)-5-(pyridin-4-yl)phenyl)amino)-7H-pyrrolo[2,3-d]pyrimidin-4-yl)amino)quinoxalin-5-yl)dimethyl-phosphine oxide] displayed an IC50 against EGFR Del19/T790M/C797S of at most 0.05 µM. For the same molecule, the GI50 (in test [1]; in the test with BaF3-EGFR (WT) cells) was over 0.1 µM in each case.
In turn, `COc1cc(N2CCN(C)CC2)c(-c2cnc3ccccc3c2)cc1Nc1nc(Nc2ccc3nccnc3c2P(C)(C)=O)c2cc[nH]c2n1` [Example 71, (6-((2-((2-methoxy-4-(4-methylpiperazin-1-yl)-5-(quinolin-3-yl)phenyl)amino)-7H-pyrrolo[2,3-d]pyrimidin-4-yl)amino)quinoxalin-5-yl)dimethyl-phosphine oxide] yielded an IC50 on EGFR Del19/T790M/C797S of at most 0.05 µM. Besides, the GI50 (in test [1]; with BaF3-EGFR (WT) cells) was over 0.1 µM in each case.
For `COc1cc(N2CCN(C)CC2)c(-c2ccccc2)cc1Nc1nc(Nc2ccc3nccnc3c2P(C)(C)=O)c2cc[nH]c2n1` [Example 72, (6-((2-((4-methoxy-6-(4-methylpiperazin-1-yl)-[1,1′-biphenyl]-3-yl)amino)-7H-pyrrolo[2,3-d]pyrimidin-4-yl)amino)quinoxalin-5-yl)dimethyl-phosphine oxide], on EGFR Del19/T790M/C797S, the IC50 is at most 0.05 µM. For the same molecule, the concentration for 50% growth inhibition (GI50) (in test [1]; with BaF3-EGFR (WT) cells) was over 0.1 µM in each case.
At EGFR Del19/T790M/C797S, `C=CC(=O)Nc1cc(Nc2nc(Nc3ccc4nccnc4c3P(C)(C)=O)c3cc[nH]c3n2)c(OC)cc1N1CCN(C)CC1` [Example 73, N-(5-((4-((5-(dimethyl-phosphoryl)quinoxalin-6-yl)amino)-7H-pyrrolo[2,3-d]pyrimidin-2-yl)amino)-4-methoxy-2-(4-methylpiperazin-1-yl)phenyl) acrylamide] returned an IC50 of at most 0.05 µM. The figures for the GI50 (in test [1]; in the test with BaF3-EGFR (WT) cells) were over 0.1 µM and 0.05 to 0.1 µM, respectively.
`COc1cc(N2CCN(C)CC2)c(-c2ccoc2)cc1Nc1nc(Nc2ccc3nccnc3c2P(C)(C)=O)c2cc[nH]c2n1` [Example 75, (6-((2-((5-(furan-3-yl)-2-methoxy-4-(4-methylpiperazin-1-yl)phenyl)amino)-7H-pyrrolo[2,3-d]pyrimidin-4-yl)amino)quinoxalin-5-yl)dimethyl-phosphine oxide] displayed a concentration for half-maximal inhibition (IC50) on EGFR Del19/T790M/C797S of at most 0.05 µM. In addition, the 50% growth inhibitory concentration (GI50) (in test [1]; with BaF3-EGFR (WT) cells) was over 0.1 µM throughout.
Consider `COc1cc(N2CCN(C)CC2)c(-c2ccsc2)cc1Nc1nc(Nc2ccc3nccnc3c2P(C)(C)=O)c2cc[nH]c2n1` [Example 76, (6-((2-((2-methoxy-4-(4-methylpiperazin-1-yl)-5-(thiophen-3-yl)phenyl)amino)-7H-pyrrolo[2,3-d]pyrimidin-4-yl)amino)quinoxalin-5-yl)dimethyl-phosphine oxide], for which the 50% inhibitory concentration (IC50) on EGFR Del19/T790M/C797S is at most 0.05 µM. The GI50 (in test [1]; in the test on BaF3-EGFR (WT) cells) was over 0.1 µM throughout.
At EGFR Del19/T790M/C797S, `COc1cc(N2CCN(C)CC2)c(C#N)cc1Nc1nc(Nc2ccc3nccnc3c2P(C)(C)=O)c2cc[nH]c2n1` [Example 81, 5-((4-((5-(dimethyl-phosphoryl)quinoxalin-6-yl)amino)-7H-pyrrolo[2,3-d]pyrimidin-2-yl)amino)-4-methoxy-2-(4-methylpiperazin-1-yl)benzonitrile] showed an IC50 of at most 0.05 µM. The concentration for 50% growth inhibition (GI50) (in test [1]; in the test with BaF3-EGFR (WT) cells) was over 0.1 µM in each case.
In the case of `C=Cc1cc(Nc2nc(Nc3ccc4nccnc4c3P(C)(C)=O)c3cc[nH]c3n2)c(OC)cc1N1CCN(C)CC1` [Example 82, (6-((2-((2-methoxy-4-(4-methylpiperazin-1-yl)-5-vinylphenyl)amino)-7H-pyrrolo[2,3-d]pyrimidin-4-yl)amino)quinoxalin-5-yl)dimethyl-phosphine oxide], the IC50 at EGFR Del19/T790M/C797S was at most 0.05 µM. In addition, the 50% growth inhibitory concentration (GI50) (in test [1]; in the test with BaF3-EGFR (WT) cells) was over 0.1 µM throughout.
As for `COc1cc(N2CCN(C)CC2)c(C2CC2)cc1Nc1nc(Nc2ccc3nccnc3c2P(C)(C)=O)c2cc[nH]c2n1` [Example 83, (6-((2-((5-cyclopropyl-2-methoxy-4-(4-methylpiperazin-1-yl)phenyl)amino)-7H-pyrrolo[2,3-d]pyrimidin-4-yl)amino)quinoxalin-5-yl)dimethyl-phosphine oxide], on EGFR Del19/T790M/C797S, the IC50 is at most 0.05 µM. Further, the concentration for 50% growth inhibition (GI50) (in test [1]; in the test with BaF3-EGFR (WT) cells) was over 0.1 µM throughout.
On to `COc1cc(N2CCN(C)CC2)c(-c2cnn(C)c2)cc1Nc1nc(Nc2cnc3ccccc3c2P(C)(C)=O)c2cc[nH]c2n1` [Example 89, (3-((2-((2-methoxy-5-(1-methyl-1H-pyrazol-4-yl)-4-(4-methylpiperazin-1-yl)phenyl)amino)-7H-pyrrolo[2,3-d]pyrimidin-4-yl)amino)quinolin-4-yl)dimethyl-phosphine oxide], for which the 50% inhibitory concentration (IC50) on EGFR Del19/T790M/C797S was at most 0.05 µM. In addition, the 50% growth inhibitory concentration (GI50) (in test [1]; in the test with BaF3-EGFR (WT) cells) was over 0.1 µM each time.
As for `COc1cc(N2CCC(N3CCN(C)CC3)CC2)c(C)cc1Nc1nc(Nc2ccc3nccnc3c2P(C)(C)=O)c2nc[nH]c2n1` [Example 104, (6-((2-((2-methoxy-5-methyl-4-(4-(4-methylpiperazin-1-yl)piperidin-1-yl)phenyl)amino)-9H-purin-6-yl)amino)quinoxalin-5-yl)dimethyl-phosphine oxide], the IC50 on EGFR Del19/T790M/C797S was at most 0.05 µM. The GI50 (in test [1]; in the test with BaF3-EGFR (WT) cells) was over 0.1 µM each time.
The molecule `COc1cc(N2CCC(N3CCN(C)CC3)CC2)c(-c2cnn(C)c2)cc1Nc1nc(Nc2ccc3nccnc3c2P(C)(C)=O)c2nc[nH]c2n1` [Example 105, (6-((2-((2-methoxy-5-(1-methyl-1H-pyrazol-4-yl)-4-(4-(4-methylpiperazin-1-yl)piperidin-1-yl)phenyl)amino)-9H-purin-6-yl)amino)quinoxalin-5-yl)dimethyl-phosphine oxide] returned an IC50 at EGFR Del19/T790M/C797S of at most 0.05 µM. The GI50 (in test [1]; in the test with BaF3-EGFR (WT) cells) was over 0.1 µM in each case.
On EGFR Del19/T790M/C797S, `Cc1cn(-c2cc(Nc3nc(Nc4ccc5nccnc5c4P(C)(C)=O)c4cc[nH]c4n3)cc(C(F)(F)F)c2)cn1` [Example 106, dimethyl (6-((2-((3-(4-methyl-1H-imidazol-1-yl)-5-(trifluoromethyl)phenyl)amino)-7H-pyrrolo[2,3-d]pyrimidin-4-yl)amino)quinoxalin-5-yl)phosphine oxide] yielded an IC50 of at most 0.05 µM. Besides, the GI50 (in test [1]; in the test with BaF3-EGFR (WT) cells) was over 0.1 µM each time.

Source of the values: US20240067668A1, “HETEROARYL DERIVATIVE COMPOUND AND USE THEREOF” (VORONOI INC., priority 2020, published 2024).
